The text below walks through data of ChEMBL document CHEMBL3045519, “Selective Herbicidal Activity of 3, 5-Dichloropyridyloxy-phenoxypropionamidoxyacetic Acid Derivatives between Wheat and Wild Oat” (J Pestic Sci, 1996).

Data set [1] has as its system Avena fatua. Put plainly: Post-emergence herbicidal activity against Avena fatua under greenhouse conditions at 0.6 g/a at 1.5-leaf stage measured after 3 weeks by pot test. Type of data set: functional, organism-based.
Data set [2] deals with Avena fatua. In words: Post-emergence herbicidal activity against Avena fatua under greenhouse conditions at 1.3 g/a at 1.5-leaf stage measured after 3 weeks by pot test. In kind it is functional, organism-based.
Data set [3] concerns Triticum aestivum. In words: Phytotoxicity against Triticum aestivum (wheat) under greenhouse conditions at 1.3 g/a at 1.5-leaf stage measured after 3 weeks by pot test. Type of data set: organism-based. The conditions noted are these: in vivo, 504 h.
Data set [4] concerns Avena fatua. Put plainly: Post-emergence herbicidal activity against Avena fatua under greenhouse conditions at 2.5 g/a at 1.5-leaf stage measured after 3 weeks by pot test. In kind it is functional, organism-based.
Data set [5] relates to Avena fatua. In words: Post-emergence herbicidal activity against Avena fatua under greenhouse conditions at 0.3 g/a at 1.5-leaf stage measured after 3 weeks by pot test. In kind it is functional, organism-based.
For data set [6], the system named is Triticum aestivum. In words: Phytotoxicity against Triticum aestivum (wheat) under greenhouse conditions at 0.6 g/a at 1.5-leaf stage measured after 3 weeks by pot test. The conditions noted are these: in vivo, 504 h. In kind it is organism-based.
Data set [7] relates to Triticum aestivum. Put plainly: Phytotoxicity against Triticum aestivum (wheat) under greenhouse conditions at 0.3 g/a at 1.5-leaf stage measured after 3 weeks by pot test. In kind it is organism-based. As to conditions: in vivo, 504 h.
The test system of data set [8] is Triticum aestivum. In words: Phytotoxicity against Triticum aestivum (wheat) under greenhouse conditions at 2.5 g/a at 1.5-leaf stage measured after 3 weeks by pot test. The conditions noted are these: in vivo, 504 h. Type of data set: organism-based.

The source made the active and inactive calls. The calls are words filed in the database; no cut-off is given here.

For the molecule `CCCCNC(=O)CNC(=O)C(C)Oc1ccc(Oc2ncc(Cl)cc2Cl)cc1` (stereo unspecified), the outcome in data set [1], in data set [2], in data set [4] and in data set [5] was Active. For the same molecule, the Activity result in data set [3] is “Non-toxic”; in data set [6], “Non-toxic”; in data set [7] it was “Non-toxic”; in data set [8], “Toxic”.
With `CCOC(=O)CNC(=O)C(C)Oc1ccc(Oc2ncc(Cl)cc2Cl)cc1` (stereo unspecified), the result in data set [1], in data set [2], in data set [4] and in data set [5] was Active. The Activity entry is reported as “Non-toxic” in data set [3], “Non-toxic” in data set [6], “Non-toxic” in data set [7] and “Toxic” in data set [8].
`CNC(=O)C(C)Oc1ccc(Oc2ncc(Cl)cc2Cl)cc1` (stereo unspecified): the outcome in data set [1], in data set [2], in data set [4] and in data set [5] was inactive. For the same molecule, the Activity entry in data set [3], in data set [6], in data set [7] and in data set [8] was “Non-toxic” each time.
Turning to `CCCOC(=O)CNC(=O)C(C)Oc1ccc(Oc2ncc(Cl)cc2Cl)cc1` (stereo unspecified), the outcome in data set [1], in data set [2], in data set [4] and in data set [5] was Active. For the same molecule, the Activity result in data set [3], in data set [6], in data set [7] and in data set [8] was “Non-toxic” throughout.
Take `CCOC(=O)C(C)Oc1ccc(Oc2ncc(Cl)cc2Cl)cc1` (stereo unspecified): the outcome in data set [1], in data set [2], in data set [4] and in data set [5] was Active. The Activity result in data set [3], in data set [6], in data set [7] and in data set [8] was “Toxic” in each case.
On to `CC(Oc1ccc(Oc2ncc(Cl)cc2Cl)cc1)C(=O)NCC(N)=O` (stereo unspecified), for which the outcome in data set [1], in data set [2], in data set [4] and in data set [5] was Active. Besides, the Activity entry in data set [3] is on record as “Non-toxic”; in data set [6], “Non-toxic”; in data set [7], “Non-toxic”; in data set [8] it was “Toxic”.
Regarding `COC(=O)CNC(=O)C(C)Oc1ccc(Oc2ncc(Cl)cc2Cl)cc1` (stereo unspecified), the result in data set [1], in data set [2], in data set [4] and in data set [5] was Active. The Activity result in data set [3], in data set [6], in data set [7] and in data set [8] was “Non-toxic” throughout.
Turning to `CC(Oc1ccc(Oc2ncc(Cl)cc2Cl)cc1)C(=O)NN` (stereo unspecified), the result in data set [1], in data set [2], in data set [4] and in data set [5] was inactive. The Activity result in data set [3], in data set [6], in data set [7] and in data set [8] was “Non-toxic” throughout.
In the case of `CC(Oc1ccc(Oc2cnc3cc(Cl)ccc3n2)cc1)C(=O)O` (stereo unspecified) [QUIZALOFOP], the result in data set [1], in data set [2], in data set [4] and in data set [5] was Active. The Activity result in data set [3], in data set [6], in data set [7] and in data set [8] was “Toxic” each time.
On to `CC(Oc1ccc(Oc2cnc3cc(Cl)ccc3n2)cc1)C(=O)NOCC(=O)O` (stereo unspecified), for which the outcome in data set [1], in data set [2], in data set [4] and in data set [5] was Active. Also, the Activity result in data set [3], in data set [6], in data set [7] and in data set [8] was “Toxic” each time.
Take `CC(Oc1ccc(Oc2ncc(Cl)cc2Cl)cc1)C(=O)NOCC(=O)O` (stereo unspecified): the result in data set [1], in data set [4] and in data set [5] was Active. Further, in data set [2], the outcome was inactive. Moreover, the Activity result in data set [3], in data set [6], in data set [7] and in data set [8] was “Non-toxic” in each case.
On to `CC(Oc1ccc(Oc2ncc(C(F)(F)F)cc2Cl)cc1)C(=O)NOCC(=O)O` (stereo unspecified), for which the outcome in data set [1], in data set [2], in data set [4] and in data set [5] was Active. Also, the Activity result in data set [3], in data set [6], in data set [7] and in data set [8] was “Toxic” throughout.
`CC(Oc1ccc(Oc2ncc(C(F)(F)F)cc2Cl)cc1)C(=O)O` (stereo unspecified) [HALOXYFOP]: the outcome in data set [1], in data set [2], in data set [4] and in data set [5] was Active. Besides, the Activity result in data set [3], in data set [6], in data set [7] and in data set [8] was “Toxic” each time.
With `CCCCOC(=O)CNC(=O)C(C)Oc1ccc(Oc2ncc(Cl)cc2Cl)cc1` (stereo unspecified), the outcome in data set [1], in data set [2], in data set [4] and in data set [5] was Active. Besides, the Activity entry in data set [3], in data set [6], in data set [7] and in data set [8] was “Non-toxic” throughout.
`CNC(=O)CNC(=O)C(C)Oc1ccc(Oc2ncc(Cl)cc2Cl)cc1` (stereo unspecified): the outcome in data set [1], in data set [2], in data set [4] and in data set [5] was Active. Also, the Activity entry in data set [3], in data set [6], in data set [7] and in data set [8] was “Non-toxic” in each case.
With `O=C(O)CONC(=O)COc1ccc(Oc2ncc(Cl)cc2Cl)cc1`, the result in data set [1], in data set [2], in data set [4] and in data set [5] was inactive. Moreover, the Activity entry in data set [3], in data set [6], in data set [7] and in data set [8] was “Non-toxic” in each case.
Consider `CC(Oc1ccc(Oc2ncc(Cl)cc2Cl)cc1)C(=O)O` (stereo unspecified) [PYRIPHENOP], for which the outcome in data set [1], in data set [2], in data set [4] and in data set [5] was Active. For the same molecule, the Activity entry in data set [3] was “Toxic”; in data set [6] it was “Toxic”; in data set [7], “Non-toxic”; in data set [8] it was “Toxic”.
For the molecule `CC(Oc1ccc(Oc2ncc(Cl)cc2Cl)cc1)C(=O)N(C)OCC(=O)O` (stereo unspecified), the result in data set [1] and in data set [5] was inactive. Also, the outcome in data set [2] and in data set [4] was Active. Also, the Activity result in data set [3], in data set [6], in data set [7] and in data set [8] was “Non-toxic” in each case.
Consider `COC(=O)C(C)Oc1ccc(Oc2ncc(Cl)cc2Cl)cc1` (stereo unspecified), for which the outcome in data set [1], in data set [2], in data set [4] and in data set [5] was Active. Moreover, the Activity entry in data set [3], in data set [6], in data set [7] and in data set [8] was “Toxic” in each case.
On to `CC(Oc1ccc(Oc2ncc(Cl)cc2Cl)cc1)C(=O)NCCC(=O)O` (stereo unspecified), for which the outcome in data set [1] and in data set [5] was inactive. The result in data set [2] and in data set [4] was Active. Moreover, the Activity entry in data set [3], in data set [6], in data set [7] and in data set [8] was “Non-toxic” in each case.
For the molecule `CC(Oc1ccc(Oc2ncc(Cl)cc2Cl)cc1)C(N)=O` (stereo unspecified), the result in data set [1], in data set [2] and in data set [4] was Active. For the same molecule, the Activity result in data set [3], in data set [6], in data set [7] and in data set [8] was “Non-toxic” each time. Also, the result in data set [5] was inactive.
Regarding `CC(Oc1ccc(Oc2ncc(Cl)cc2Cl)cc1)C(=O)NO` (stereo unspecified), the result in data set [1], in data set [2] and in data set [4] was Active. Further, the Activity entry in data set [3], in data set [6], in data set [7] and in data set [8] was “Non-toxic” in each case. Also, the outcome in data set [5] was inactive.
